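Where inhibition never reached the appropriate level, the endpoint shown equals the highest concentration tested. Otherwise, values were interpolated linearly from a five-concentration, 48-hour dose response in 96-well plates. TGI: concentration producing complete growth inhibition.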
Experiments:
Assay in all cases: NCI-60 cell line screen, 48 h
DMS 114 small cell lung = test system: DMS 114 small cell lung
COLO 205 colon = test system: COLO 205 colon
MALME-3M melanoma = test system: MALME-3M melanoma
DMS 273 small cell lung = test system: DMS 273 small cell lung
HT29 colon = test system: HT29 colon
SNB-78 CNS = test system: SNB-78 CNS
M19-MEL melanoma = test system: M19-MEL melanoma
A498 renal = test system: A498 renal
SF-268 CNS = test system: SF-268 CNS
K-562 leukemia = test system: K-562 leukemia
SNB-19 CNS = test system: SNB-19 CNS
SK-OV-3 ovarian = test system: SK-OV-3 ovarian
SK-MEL-2 melanoma = test system: SK-MEL-2 melanoma
SF-295 CNS = test system: SF-295 CNS
HOP-18 NSCLC = test system: HOP-18 NSCLC
A549 NSCLC = test system: A549 NSCLC
HL-60(TB) leukemia = test system: HL-60(TB) leukemia
RXF 393 renal = test system: RXF 393 renal
MOLT-4 leukemia = test system: MOLT-4 leukemia
OVCAR-8 ovarian = test system: OVCAR-8 ovarian
LOX IMVI melanoma = test system: LOX IMVI melanoma
IGROV1 ovarian = test system: IGROV1 ovarian
HCT-15 colon = test system: HCT-15 colon
DLD-1 colon = test system: DLD-1 colon
NCI-H23 lung = test system: NCI-H23 lung
XF 498 CNS = test system: XF 498 CNS
CCRF-CEM leukemia = test system: CCRF-CEM leukemia
SNB-75 CNS = test system: SNB-75 CNS
SK-MEL-28 melanoma = test system: SK-MEL-28 melanoma
SW-620 colon = test system: SW-620 colon
KM12 colon = test system: KM12 colon
U251 CNS = test system: U251 CNS
HOP-92 NSCLC = test system: HOP-92 NSCLC
KM20L2 colon = test system: KM20L2 colon
HOP-62 NSCLC = test system: HOP-62 NSCLC
OVCAR-5 ovarian = test system: OVCAR-5 ovarian
NCI-H460 lung = test system: NCI-H460 lung
NCI-H226 lung = test system: NCI-H226 lung
HCT-116 colon = test system: HCT-116 colon
M14 melanoma = test system: M14 melanoma
SK-MEL-5 melanoma = test system: SK-MEL-5 melanoma
CAKI-1 renal = test system: CAKI-1 renal
OVCAR-3 ovarian = test system: OVCAR-3 ovarian
786-0 renal = test system: 786-0 renal
EKVX NSCLC = test system: EKVX NSCLC
HCC-2998 colon = test system: HCC-2998 colon
TK-10 renal = test system: TK-10 renal
SF-539 CNS = test system: SF-539 CNS
UACC-257 melanoma = test system: UACC-257 melanoma
UACC-62 melanoma = test system: UACC-62 melanoma
OVCAR-4 ovarian = test system: OVCAR-4 ovarian
UO-31 renal = test system: UO-31 renal
ACHN renal = test system: ACHN renal
NCI-H522 lung = test system: NCI-H522 lung
LXFL 529 NSCLC = test system: LXFL 529 NSCLC
RPMI-8226 leukemia = test system: RPMI-8226 leukemia
SR leukemia = test system: SR leukemia
SN12C renal = test system: SN12C renal

COc1cc2c(cc1O)[C@H](C)C(c1ccc(OC)c(OC)c1)O2 (stereo partly specified)
TGI (DMS 114 small cell lung): 13.8 µM | TGI (COLO 205 colon): 49.2 µM | TGI (MALME-3M melanoma): 22.8 µM | TGI (DMS 273 small cell lung): 15.4 µM | TGI (HT29 colon): 34.5 µM | TGI (SNB-78 CNS): 64.7 µM | TGI (M19-MEL melanoma): 12.2 µM | TGI (A498 renal): > 100 µM | TGI (SF-268 CNS): > 100 µM | TGI (K-562 leukemia): 17.4 µM | TGI (SNB-19 CNS): 65.3 µM | TGI (SK-OV-3 ovarian): > 100 µM | TGI (SK-MEL-2 melanoma): 12.8 µM | TGI (SF-295 CNS): > 100 µM | TGI (HOP-18 NSCLC): 20 µM | TGI (A549 NSCLC): > 100 µM | TGI (HL-60(TB) leukemia): 13.7 µM | TGI (RXF 393 renal): 30.3 µM | TGI (MOLT-4 leukemia): 23.9 µM | TGI (OVCAR-8 ovarian): 35.1 µM | TGI (LOX IMVI melanoma): 16 µM | TGI (IGROV1 ovarian): 4.36 µM | TGI (HCT-15 colon): 13.3 µM | TGI (DLD-1 colon): 21.3 µM | TGI (NCI-H23 lung): 28.1 µM | TGI (XF 498 CNS): 21.8 µM | TGI (CCRF-CEM leukemia): 25.6 µM | TGI (SNB-75 CNS): 11.7 µM | TGI (SK-MEL-28 melanoma): 23 µM | TGI (SW-620 colon): 19.4 µM | TGI (KM12 colon): > 100 µM | TGI (U251 CNS): 37.8 µM | TGI (HOP-92 NSCLC): 23.1 µM | TGI (KM20L2 colon): 38.2 µM | TGI (HOP-62 NSCLC): > 100 µM | TGI (OVCAR-5 ovarian): > 100 µM | TGI (NCI-H460 lung): 4.87 µM | TGI (NCI-H226 lung): 64.6 µM | TGI (HCT-116 colon): 15.1 µM | TGI (M14 melanoma): 15.9 µM | TGI (SK-MEL-5 melanoma): 20.8 µM | TGI (CAKI-1 renal): 15.9 µM | TGI (OVCAR-3 ovarian): 16.6 µM | TGI (786-0 renal): 23.8 µM | TGI (EKVX NSCLC): > 100 µM | TGI (HCC-2998 colon): > 100 µM | TGI (TK-10 renal): 30.1 µM | TGI (SF-539 CNS): 38.6 µM | TGI (UACC-257 melanoma): 35.9 µM | TGI (UACC-62 melanoma): 10.1 µM | TGI (OVCAR-4 ovarian): 26.2 µM | TGI (UO-31 renal): 64 µM | TGI (ACHN renal): 22.4 µM | TGI (NCI-H522 lung): 30.8 µM | TGI (LXFL 529 NSCLC): 21.5 µM

N#CCCC[Si]12OCCN(CCO1)CCO2
TGI (DMS 114 small cell lung): > 100 µM | TGI (COLO 205 colon): > 100 µM | TGI (MALME-3M melanoma): > 100 µM | TGI (DMS 273 small cell lung): > 100 µM | TGI (HT29 colon): > 100 µM | TGI (SNB-78 CNS): > 100 µM | TGI (M19-MEL melanoma): > 100 µM | TGI (A498 renal): > 100 µM | TGI (RPMI-8226 leukemia): > 100 µM | TGI (SF-268 CNS): > 100 µM | TGI (K-562 leukemia): > 100 µM | TGI (SNB-19 CNS): > 100 µM | TGI (SK-OV-3 ovarian): > 100 µM | TGI (SK-MEL-2 melanoma): > 100 µM | TGI (SF-295 CNS): > 100 µM | TGI (HOP-18 NSCLC): > 100 µM | TGI (A549 NSCLC): > 100 µM | TGI (HL-60(TB) leukemia): > 100 µM | TGI (RXF 393 renal): > 100 µM | TGI (SR leukemia): > 100 µM | TGI (MOLT-4 leukemia): > 100 µM | TGI (OVCAR-8 ovarian): > 100 µM | TGI (IGROV1 ovarian): > 100 µM | TGI (DLD-1 colon): > 100 µM | TGI (NCI-H23 lung): > 100 µM | TGI (CCRF-CEM leukemia): > 100 µM | TGI (SNB-75 CNS): > 100 µM | TGI (SK-MEL-28 melanoma): > 100 µM | TGI (SW-620 colon): > 100 µM | TGI (KM12 colon): > 100 µM | TGI (U251 CNS): > 100 µM | TGI (HOP-92 NSCLC): > 100 µM | TGI (OVCAR-5 ovarian): > 100 µM | TGI (NCI-H460 lung): > 100 µM | TGI (NCI-H226 lung): > 100 µM | TGI (HCT-116 colon): > 100 µM | TGI (SK-MEL-5 melanoma): > 100 µM | TGI (CAKI-1 renal): > 100 µM | TGI (OVCAR-3 ovarian): > 100 µM | TGI (786-0 renal): > 100 µM | TGI (EKVX NSCLC): > 100 µM | TGI (HCC-2998 colon): > 100 µM | TGI (TK-10 renal): > 100 µM | TGI (SF-539 CNS): > 100 µM | TGI (UACC-257 melanoma): > 100 µM | TGI (UACC-62 melanoma): > 100 µM | TGI (SN12C renal): > 100 µM | TGI (UO-31 renal): > 100 µM | TGI (ACHN renal): > 100 µM | TGI (NCI-H522 lung): > 100 µM | TGI (LXFL 529 NSCLC): > 100 µM

Source: PubChem BioAssay (NCI)
